{"source": "PubChem BioAssay AID651772", "about": "(Broad Institute, 2012)", "note": "Where “and” joins values, the source holds several entries; their conditions need not be identical. Equal values may be shown once. Records with an inconclusive call do not appear. Calls of active or inactive are those of the source.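 The calls were made as follows: active = compounds whose fitted curve reaches 40% higher CDK2 Ct shift, meaning less CDK2 mRNA, within twice the top dose; inconclusive = flat curve with 30 to 70% opposite effect, or poor fit; inactive = the rest.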"}
{"system": "not listed separately", "assay": "suppression of MITF target gene CDK2 mRNA, dose response, orthogonal assay for MITF inhibitor project, cell-based, SK-MEL-5, RT-qPCR, dry powder samples (AID 651772)", "conditions": "SK-MEL-5 CDK2 mRNA, RT-qPCR delta-delta-Ct, overnight"}
{"smiles": "NC1=C(NS(=O)(=O)c2ccc(Br)s2)C(=O)c2ccccc2C1=O", "outcome": "inactive"}
{"system": "SK-MEL-5 CDK2 mRNA, RT-qPCR delta-delta-Ct, overnight", "assay": "suppression of MITF target gene CDK2 mRNA, dose response, orthogonal assay for MITF inhibitor project, cell-based, SK-MEL-5, RT-qPCR, dry powder samples (AID 651772)", "conditions": "not given"}
{"smiles": "O=C1C(Nc2ccc(F)cc2)=C(N2CCCCC2)C(=O)c2ccccc21", "AC40": "8220 nM"}
{"smiles": "O=C1C=C(Nc2ccc([N+](=O)[O-])c(C(F)(F)F)c2)C(=O)c2ccccc21", "AC40": "78.7 nM"}
{"smiles": "Cc1nc2ccccc2n1/N=C/c1ccc([N+](=O)[O-])s1", "AC40": "2920 nM"}
{"smiles": "O=C1C(Nc2ccccc2)=C(c2ccccc2)C(=O)c2ccccc21", "AC40": "7060 nM"}
{"smiles": "COC1=C(NS(=O)(=O)c2ccccc2)C(=O)c2ccccc2C1=O", "AC40": "3500 nM"}
{"smiles": "O=C1C=C(NS(=O)(=O)c2cccs2)C(=O)c2ccccc21", "AC40": "339 nM"}
{"smiles": "CCN1CCN(C2=C(NC(=O)c3ccccc3)C(=O)c3ccccc3C2=O)CC1", "AC40": "2410 nM"}
{"smiles": "NC1=C(NC(=O)c2ccccc2)C(=O)c2ccccc2C1=O", "AC40": "882 nM"}
{"smiles": "NS(=O)(=O)c1ccc(NC2=CC(=O)c3ccccc3C2=O)cc1", "AC40": "141 nM"}
{"smiles": "COC1=C(NS(=O)(=O)c2ccc(Br)cc2)C(=O)c2ccccc2C1=O", "AC40": "4290 nM"}
{"smiles": "CN1CCN(C2=C(NS(=O)(=O)c3ccc(Br)s3)C(=O)c3ccccc3C2=O)CC1", "AC40": "7940 nM"}
{"smiles": "O=C1C=C(Nc2ccccc2)C(=O)c2ccccc21", "AC40": "571 nM and 394 nM"}
{"smiles": "CC(C)N1CCN(C2=C(Nc3ccc(F)cc3)C(=O)c3ccccc3C2=O)CC1", "AC40": "6510 nM"}
{"smiles": "COC1=C(Nc2ccccc2)C(=O)c2ccccc2C1=O", "AC40": "204 nM"}
{"smiles": "CC(C)N1CCN(C2=C(Nc3ccc(F)cc3F)C(=O)c3ccccc3C2=O)CC1", "AC40": "1770 nM"}
{"smiles": "O=C(NC1=C(Cl)C(=O)c2ccccc2C1=O)c1ccccc1", "AC40": "203 nM"}
{"smiles": "COC1=C(NS(=O)(=O)c2cccs2)C(=O)c2ccccc2C1=O", "AC40": "9340 nM"}
{"smiles": "NC1=C(NS(=O)(=O)c2ccccc2)C(=O)c2ccccc2C1=O", "AC40": "4390 nM"}
{"smiles": "O=C1C(NS(=O)(=O)c2cccs2)=C(c2ccccc2)C(=O)c2ccccc21", "AC40": "3790 nM"}
{"smiles": "NC1=C(NS(=O)(=O)c2ccc(Br)cc2)C(=O)c2ccccc2C1=O", "AC40": "9610 nM"}
{"smiles": "O=C1C=C(NS(=O)(=O)c2ccc(Br)cc2)C(=O)c2ccccc21", "AC40": "358 nM"}
{"smiles": "NC1=CC(=O)c2ccccc2C1=O", "AC40": "300 nM"}
{"smiles": "CN1CCN(C2=C(Nc3ccc(F)cc3F)C(=O)c3ccccc3C2=O)CC1", "AC40": "2450 nM"}
{"smiles": "C=CCNC1=C(Cl)C(=O)c2ccccc2C1=O", "AC40": "1460 nM"}
{"smiles": "O=C1C(Nc2ccc(Cl)cc2)=C(N2CCCC2)C(=O)c2ccccc21", "AC40": "9910 nM"}
{"smiles": "O=C1C=C(NS(=O)(=O)c2ccccc2)C(=O)c2ccccc21", "AC40": "138 nM"}
{"smiles": "CCN1CCN(C2=C(Nc3ccc(F)cc3F)C(=O)c3ccccc3C2=O)CC1", "AC40": "1410 nM"}
{"smiles": "NC1=C(NS(=O)(=O)c2cccs2)C(=O)c2ccccc2C1=O", "AC40": "1980 nM"}
{"smiles": "CCN1CCN(C2=C(NS(=O)(=O)c3ccc(Br)cc3)C(=O)c3ccccc3C2=O)CC1", "AC40": "14100 nM"}
